{
  "source": "patent US20100234238A1",
  "about": "“METHOD FOR PROFILING KINASE INHIBITORS” (Janssen Pharmaceutica N V, priority 2006, published 2010)",
  "key": {"xenograft tumors [1]": {"tested_on": "xenograft tumors", "experiment": "Response of subcutaneous xenograft tumors to MTKI in vivo", "set-up": "species or system nude immuno-compromised mice; key: R: A responder is predicted when minimally 4 peptides have a ratio <0.8; NR = Non-Responder to MTKI", "protocol": "(§1) To explore whether a similar approach allows for the classification of responder and non-responder tumors, the same strategy as above was applied to 12 different xenograft tumors, which were subcutaneously grown in nude immuno-compromised mice from human cancer cell lines. […] Lysates were made from homogenized frozen tumor blocks and analyzed in the absence or presence of 5 μM MTKI, as before."}, "xenograft tumors [2]": {"tested_on": "xenograft tumors", "experiment": "Response of subcutaneous xenograft tumors to MTKI in vivo", "set-up": "species or system nude immuno-compromised mice", "conditions": "for response status: response to MTKI in vivo", "protocol": "as §1"}, "[3]": {"tested_on": "27 cell lines, representing diverse cancer cell types", "experiment": "Inhibition of proliferation of cell lines in vitro (response status)", "format": "cell-based", "set-up": "key: R: A responder is predicted when minimally 4 peptides have a ratio <0.8; NR = Non-Responder to MTKI", "conditions": "MTKI", "protocol": "It was tested whether the Pamchip peptide arrays are a useful tool to predict the response of a cell line to the multi-targeted kinase inhibitor, MTKI. MTKI inhibits the proliferation of a range of cell lines in vitro with widely varying IC50's. The lysates prepared from these 27 cell lines, representing diverse cancer cell types, were profiled on the peptide arrays in the absence or presence of 5 μM MTKI, in 6 replicates for each condition. In this panel, 13 cell lines were defined as responder cell lines (IC50<3 μM; cell lines are ordered according to increasing IC50 in Example 1, whereas 14 cell lines are classified as ‘non-responder’ cell lines (IC50>10 μM). Intermediary cell lines and cell lines with highly variable IC50 measurements were omitted from the analysis. The experiment included the highly responsive H3255 lung cancer cell line, which overexpresses mutant EGFR L858R. This mutant variant is highly responsive to MTKI, which is an ATP-competitive compound that binds to the active conformation of EGFR (similar to erlotinib and gefitinib). Accordingly, the most profound changes induced by MTKI in lysate kinase activity can be observed for this highly responsive cell line. […]"}},
  "data": [
    {"smiles": "COc1cc2ncnc3c2cc1OCCCCCN(C)Cc1ccc(Br)cc1N3", "note": "[MTKI, 4,6-ethanediylidenepyrimido[4,5-b][6,1,12]benzoxadiazacyclopentadecine, 17-bromo-8,9,10,11,12,13,14,19-octahydro-20-methoxy-13-methyl-]", "values": [
      {"measurement": "response status", "setting": "xenograft tumors [1]; H441 xenograft tumor", "result": "NR"},
      {"measurement": "response status", "setting": "xenograft tumors [1]; H460 xenograft tumor", "result": "NR"},
      {"measurement": "response status", "setting": "xenograft tumors [1]; H1703 xenograft tumor", "result": "NR"},
      {"measurement": "response status", "setting": "xenograft tumors [1]; HT29 xenograft tumor", "result": "NR"},
      {"measurement": "response status", "setting": "xenograft tumors [1]; PC3 xenograft tumor", "result": "NR"},
      {"measurement": "response status", "setting": "xenograft tumors [1]; SKOV3 xenograft tumor", "result": "NR"},
      {"measurement": "response status", "setting": "xenograft tumors [1]; U87MG xenograft tumor", "result": "NR"},
      {"measurement": "response status", "setting": "xenograft tumors [2]; A431 xenograft tumor", "result": "R"},
      {"measurement": "response status", "setting": "xenograft tumors [2]; BT474 xenograft tumor", "result": "R"},
      {"measurement": "responsiveness of xenograft tumors in vivo", "setting": "xenograft tumors [2]; DU145, SUM149 and BT474 tumors", "result": "potent inhibition of tumor growth"},
      {"measurement": "response status", "setting": "xenograft tumors [2]; DU145 xenograft tumor", "result": "R"},
      {"measurement": "response status", "setting": "xenograft tumors [2]; H322 xenograft tumor", "result": "R"},
      {"measurement": "responsiveness of xenograft tumors in vivo", "setting": "xenograft tumors [2]; H460 and H441, HT29, PC3, SKOV3, H1703 tumors", "result": "non-responsive"},
      {"measurement": "responsiveness of xenograft tumors in vivo", "setting": "xenograft tumors [2]; H3255, A431 and H322 tumors", "result": "abrupt tumor regression"},
      {"measurement": "response status", "setting": "xenograft tumors [2]; H3255 xenograft tumor", "result": "R"},
      {"measurement": "response status", "setting": "xenograft tumors [2]; SUM149 xenograft tumor", "result": "R"},
      {"measurement": "response status", "setting": "[3]; GTL16 cell line", "result": "NR"},
      {"measurement": "response status", "setting": "[3]; MOLT4 cell line", "result": "NR"}
    ]}
  ]
}
